Data reported in patent US20250237650A1 (priority 2021, published 2025).

What was measured:
[1] = test system: WT, Alpha, Beta, Delta, and Omicron BA.1 spike proteins; assay type: binding, SARS-CoV-2
[2] = test system: full-length trimeric Alpha, Beta, and Delta spikes; assay type: binding, SARS-CoV-2

Substance | binding affinities to VOC spikes (in words) [1] | binding affinity to variant spikes relative to WT spike [2]
ACE2 | within nanomolar range | 
heparin [reference compound] | an increase in affinity between HEP and Omicron spike over Delta and other VOC spikes | 
heparin [HEP15, reference compound] |  | comparable binding affinity to WT spike
